Results from patent US20080063628A1, “METHODS TO PROMOTE CELL DIFFERENTIATION” (priority 2006, published 2008).

Columns and labels:
[1] = system: late passage (P11) pancreatic-derived stromal cell line; assay: Two high dose trichostatin A treatments (first 48 h), gene expression by RT-PCR (Example 9); assay type: cell-based, human; details: for HNF-3 beta gene expression / Insulin gene expression / Pdx-1 gene expression / glucagon gene expression: 5 μM 0-48 h + 96-120 h; for HNF-3 beta RT-PCR detection cycle / Pdx-1 RT-PCR detection cycle / glucagon RT-PCR detection cycle: 5.0 μM;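 as to HNF-3 beta RT-PCR detection cycle: lower cycle number means higher gene expression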;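 as to glucagon RT-PCR detection cycle: lower cycle number means higher gene expression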
Method: (§1) Several cell lines obtained from different amniotic fluid specimens (see Example 14) and pancreas donors (see Example 13) were tested with similar results. Two lines at similar passage number but derived from different amniotic fluid specimens are shown in Table VIII-A and Table VIII-B for this example. One of these cell lines was also used in examples 2 and 4 above. In addition, this example also contains comparison data in Table VIII-C and Table VIII-D for a single pancreatic-derived stromal line grown to early and late passage number.
(§2) Amniotic fluid derived cells or pancreatic-derived stromal cells were seeded into 24-well tissue culture plates at a density of 5000/cm^2 and cultured in AMNIOMAX (Invitrogen) or DMEM with 10% FBS respectively under standard cell culture conditions until confluent. After reaching confluence, amniotic fluid derived cells were treated at time 0 hours with a dose of 1.25 μM trichostatin A, and pancreatic-derived stromal cells were treated with a dose of 5.0 μM trichostatin A solubilized in DMSO and medium. At time 48 hours, cell cultures underwent a complete medium change to remove all traces of trichostatin A. At time 96 hours, cell cultures were re-fed with fresh medium and received a second dose of trichostatin A at the same concentration as used previously. At time 120 hours, cell cultures again underwent a complete medium change and were cultured for an additional 24 hours or […] total incubation time. Samples were taken for RT-PCR at the times indicated in Table IX-A to D. RNA samples were obtained daily from the start of the experiment. Culture medium was removed, and cells were washed with PBS then collected in RLT with β-mercaptoethanol (Qiagen). RNA was purified using the RNeasy Mini Kit (Qiagen) and RNA quantity and quality was determined using a spectrophotometer. cDNA was made using the iScript cDNA synthesis kit (BioRad). Human pancreas cDNA was included as a control. Results were normalized against GAPDH expression levels.
(§3) Gene expression levels of Sox17, HNF-3 beta, Pdx-1, insulin, and glucagon were analyzed in amniotic-derived cells, while expression levels of glucagon, insulin, HNF-3 beta, and Pdx-1 were analyzed in pancreas-derived cells. Samples of 20 ng cDNA was used in each Real-Time PCR reaction. RT-PCR was performed on the Applied Biosystems 7500, according to the methods described in Example 15. The data were analyzed using the accompanying software.
(§4) Real-time PCR amplifcation and quantitative analysis. Unless otherwise stated, all reagents were purchased from Applied Biosystems. Real-time PCR reactions were performed using the ABI PRISM™ 7500 Sequence Detection System. TAQMAN™ FAST UNIVERSAL PCR MASTER MIX™ (ABI, CA) was used with 20 ng of reverse transcribed RNA in a total reaction volume of 20 μl. Each cDNA sample was run in duplicate to allow correction of pipetting errors. Primers and FAM-labeled TAQMAN™ probes were used at concentrations of 200 nM. The level of expression for each target gene was normalized using the pre-developed Applied Biosystem's human glyceraldehyde-3-phosphate dehydrogenase (GAPDH) endogenous control kit. Primers and probes were designed using either ABI PRISM PRIMER EXPRESS™ software or a pre-developed ABI gene analysis kit. For each gene, either one of the primers or the probe were designed to be exon-boundary spanning. This eliminated the possibility of the primers/probe binding to any genomic DNA present. The primer and probe sets are listed as follows: Pdx-1 (Hs00426216), Insulin (Hs00355773), glucagon (Hs00174967), and FoxA2 (HNF 3-beta) (Hs00232764). The remaining primers were designed using the PRIMERS program (ABI, CA). After an initial 95° C. incubation for 20 sec, samples were cycled 40 times in two stages: a denaturation step at 95° C. for 3 sec, followed by an annealing/extension step at 60° C. for 30 sec. […]

[2] = system: second amniotic fluid-derived cell line; assay: as above; assay type: cell-based, human; details: for Gata1 gene expression / HNF-3 beta gene expression / Insulin gene expression / Pdx-1 gene expression / sox17 gene expression: 1.25 μM 0-48 h + 96-120 h;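 as to Gata-1 RT-PCR detection cycle: lower cycle number means higher gene expression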;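 as to HNF-3 beta RT-PCR detection cycle: lower cycle number means higher gene expression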
Method: as §1, §2, §3, §4

[3] = for 48 hours following addition
[4] = once trichostatin A was added again
[5] = 1.25 μM, following the second treatment

CC(/C=C/C(=O)NO)=C\[C@@H](C)C(=O)c1ccc(N(C)C)cc1 [trichostatin A]
HNF-3 beta gene expression ([1]; 24 hrs): +++ (detectable at less than 35 cycles by RT-PCR with SE less than 0.9) | Insulin gene expression ([1]; 24 hrs): nd (not detectable at >40 cycles by RT-PCR) | Pdx-1 gene expression ([1]; 24 hrs): + (detectable between 35 and 40 cycles by RT-PCR) | glucagon gene expression ([1]; 24 hrs): +++ (detectable at less than 35 cycles by RT-PCR with SE less than 0.9) | HNF-3 beta gene expression ([1]; 48 hrs): +++ (detectable at less than 35 cycles by RT-PCR with SE less than 0.9) | Insulin gene expression ([1]; 48 hrs): nd (not detectable at >40 cycles by RT-PCR) | Pdx-1 gene expression ([1]; 48 hrs): +++ (detectable at less than 35 cycles by RT-PCR with SE less than 0.9) | glucagon gene expression ([1]; 48 hrs): +++ (detectable at less than 35 cycles by RT-PCR with SE less than 0.9) | HNF-3 beta gene expression ([1]; 72 hrs): nd (not detectable at >40 cycles by RT-PCR) | Insulin gene expression ([1]; 72 hrs): nd (not detectable at >40 cycles by RT-PCR) | Pdx-1 gene expression ([1]; 72 hrs): nd (not detectable at >40 cycles by RT-PCR) | glucagon gene expression ([1]; 72 hrs): + (detectable between 35 and 40 cycles by RT-PCR) | HNF-3 beta gene expression ([1]; 96 hrs): nd (not detectable at >40 cycles by RT-PCR) | Insulin gene expression ([1]; 96 hrs): nd (not detectable at >40 cycles by RT-PCR) | Pdx-1 gene expression ([1]; 96 hrs): nd (not detectable at >40 cycles by RT-PCR) | glucagon gene expression ([1]; 96 hrs): nd (not detectable at >40 cycles by RT-PCR) | HNF-3 beta gene expression ([1]; 120 hrs): +++ (detectable at less than 35 cycles by RT-PCR with SE less than 0.9) | Insulin gene expression ([1]; 120 hrs): + (detectable between 35 and 40 cycles by RT-PCR) | Pdx-1 gene expression ([1]; 120 hrs): +++ (detectable at less than 35 cycles by RT-PCR with SE less than 0.9) | glucagon gene expression ([1]; 120 hrs): + (detectable between 35 and 40 cycles by RT-PCR) | HNF-3 beta RT-PCR detection cycle ([1]; after addition): 32 cycles | Pdx-1 RT-PCR detection cycle ([1]; after addition): 31 cycles | glucagon RT-PCR detection cycle ([1]; after addition (for 48 hours)): 33 cycles | glucagon RT-PCR detection cycle ([1]; following the removal): 37 cycles | HNF-3 beta RT-PCR detection cycle [1, 3]: 33 cycles | Pdx-1 RT-PCR detection cycle [1, 3]: 32 cycles | HNF-3 beta RT-PCR detection cycle [1, 4]: 34 cycles | Pdx-1 RT-PCR detection cycle [1, 4]: 33 cycles | glucagon RT-PCR detection cycle ([1]; second treatment): 35 cycles | Gata1 gene expression ([2]; 24 hrs): + (detectable between 35 and 40 cycles by RT-PCR) | HNF-3 beta gene expression ([2]; 24 hrs): +++ (detectable at less than 35 cycles by RT-PCR with SE less than 0.9) | Insulin gene expression ([2]; 24 hrs): nd (not detectable at >40 cycles by RT-PCR) | Pdx-1 gene expression ([2]; 24 hrs): ++ (detectable at less than 35 cycles by RT-PCR with SE greater than 0.9) | sox17 gene expression ([2]; 24 hrs): +++ (detectable at less than 35 cycles by RT-PCR with SE less than 0.9) | Gata1 gene expression ([2]; 48 hrs): nd (not detectable at >40 cycles by RT-PCR) | HNF-3 beta gene expression ([2]; 48 hrs): +++ (detectable at less than 35 cycles by RT-PCR with SE less than 0.9) | Insulin gene expression ([2]; 48 hrs): nd (not detectable at >40 cycles by RT-PCR) | Pdx-1 gene expression ([2]; 48 hrs): + (detectable between 35 and 40 cycles by RT-PCR) | sox17 gene expression ([2]; 48 hrs): +++ (detectable at less than 35 cycles by RT-PCR with SE less than 0.9) | Gata1 gene expression ([2]; 72 hrs): nd (not detectable at >40 cycles by RT-PCR) | HNF-3 beta gene expression ([2]; 72 hrs): +++ (detectable at less than 35 cycles by RT-PCR with SE less than 0.9) | Insulin gene expression ([2]; 72 hrs): nd (not detectable at >40 cycles by RT-PCR) | Pdx-1 gene expression ([2]; 72 hrs): nd (not detectable at >40 cycles by RT-PCR) | sox17 gene expression ([2]; 72 hrs): +++ (detectable at less than 35 cycles by RT-PCR with SE less than 0.9) | Gata1 gene expression ([2]; 96 hrs): nd (not detectable at >40 cycles by RT-PCR) | HNF-3 beta gene expression ([2]; 96 hrs): + (detectable between 35 and 40 cycles by RT-PCR) | Insulin gene expression ([2]; 96 hrs): nd (not detectable at >40 cycles by RT-PCR) | Pdx-1 gene expression ([2]; 96 hrs): nd (not detectable at >40 cycles by RT-PCR) | sox17 gene expression ([2]; 96 hrs): +++ (detectable at less than 35 cycles by RT-PCR with SE less than 0.9) | Gata1 gene expression ([2]; 120 hrs): + (detectable between 35 and 40 cycles by RT-PCR) | HNF-3 beta gene expression ([2]; 120 hrs): +++ (detectable at less than 35 cycles by RT-PCR with SE less than 0.9) | Insulin gene expression ([2]; 120 hrs): nd (not detectable at >40 cycles by RT-PCR) | Pdx-1 gene expression ([2]; 120 hrs): +++ (detectable at less than 35 cycles by RT-PCR with SE less than 0.9) | sox17 gene expression ([2]; 120 hrs): +++ (detectable at less than 35 cycles by RT-PCR with SE less than 0.9) | HNF-3 beta RT-PCR detection cycle ([2]; 1.25 μM, by 96 hours): 37 cycles | HNF-3 beta RT-PCR detection cycle ([2]; 1.25 μM, first 72 hours): 34 cycles | Pdx-1 RT-PCR detection cycle ([2]; 1.25 μM, following the initial 48-hour treatment): 35 cycles | Gata-1 RT-PCR detection cycle [2, 5]: 38 cycles | HNF-3 beta RT-PCR detection cycle [2, 5]: 33 cycles | Pdx-1 RT-PCR detection cycle [2, 5]: 34 cycles
